Reference: PubChem BioAssay (NCI)
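In this assay, cells in 96-well plates receive the compound at five concentrations for 48 hours. Endpoints are linearly interpolated between the surrounding concentrations. At the GI50, growth is halved. TGI marks complete inhibition of growth.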

Columns and labels:
Experiment in all cases: NCI anticancer screen, dose series, 48 h
786-0 renal = system: 786-0 renal
A549 NSCLC = system: A549 NSCLC
ACHN renal = system: ACHN renal
BT-549 breast = system: BT-549 breast
CCRF-CEM leukemia = system: CCRF-CEM leukemia
DU-145 prostate = system: DU-145 prostate
EKVX NSCLC = system: EKVX NSCLC
HCC-2998 colon = system: HCC-2998 colon
HCT-116 colon = system: HCT-116 colon
HCT-15 colon = system: HCT-15 colon
HL-60(TB) leukemia = system: HL-60(TB) leukemia
HOP-62 NSCLC = system: HOP-62 NSCLC
HT29 colon = system: HT29 colon
IGROV1 ovarian = system: IGROV1 ovarian
K-562 leukemia = system: K-562 leukemia
KM12 colon = system: KM12 colon
LOX IMVI melanoma = system: LOX IMVI melanoma
M14 melanoma = system: M14 melanoma
MALME-3M melanoma = system: MALME-3M melanoma
MCF7 breast = system: MCF7 breast
MDA-MB-231 breast = system: MDA-MB-231 breast
MDA-MB-435 = system: MDA-MB-435
NCI-H226 lung = system: NCI-H226 lung
NCI-H23 lung = system: NCI-H23 lung
NCI-H460 lung = system: NCI-H460 lung
NCI/ADR-RES ovarian = system: NCI/ADR-RES ovarian
OVCAR-3 ovarian = system: OVCAR-3 ovarian
OVCAR-4 ovarian = system: OVCAR-4 ovarian
OVCAR-5 ovarian = system: OVCAR-5 ovarian
OVCAR-8 ovarian = system: OVCAR-8 ovarian
PC-3 prostate = system: PC-3 prostate
RXF 393 renal = system: RXF 393 renal
SF-268 CNS = system: SF-268 CNS
SF-295 CNS = system: SF-295 CNS
SF-539 CNS = system: SF-539 CNS
SK-MEL-28 melanoma = system: SK-MEL-28 melanoma
SK-MEL-5 melanoma = system: SK-MEL-5 melanoma
SK-OV-3 ovarian = system: SK-OV-3 ovarian
SN12C renal = system: SN12C renal
SNB-19 CNS = system: SNB-19 CNS
SR leukemia = system: SR leukemia
SW-620 colon = system: SW-620 colon
T-47D breast = system: T-47D breast
U251 CNS = system: U251 CNS
UACC-257 melanoma = system: UACC-257 melanoma
UACC-62 melanoma = system: UACC-62 melanoma
UO-31 renal = system: UO-31 renal
A498 renal = system: A498 renal
COLO 205 colon = system: COLO 205 colon
HOP-92 NSCLC = system: HOP-92 NSCLC
HS 578T breast = system: HS 578T breast
RPMI-8226 leukemia = system: RPMI-8226 leukemia
SK-MEL-2 melanoma = system: SK-MEL-2 melanoma
SNB-75 CNS = system: SNB-75 CNS
TK-10 renal = system: TK-10 renal

For `O=S(=O)(CCN1CCOCC1)Nc1cc(-c2ccc3ncnc(Nc4ccc(F)c(Cl)c4)c3c2)cnc1Cl`, the GI50 (786-0 renal) was 410 nM, the TGI (786-0 renal) was > 100000 nM and the GI50 (A549 NSCLC) was 1620 nM. For the same compound, the TGI (A549 NSCLC) was 6290 nM, the GI50 (ACHN renal) was 735 nM and the TGI (ACHN renal) was > 100000 nM. For the same compound, the GI50 (BT-549 breast) was 254 nM, the TGI (BT-549 breast) was 2590 nM and the GI50 (CCRF-CEM leukemia) was 455 nM. The TGI (CCRF-CEM leukemia) was > 100000 nM, the GI50 (DU-145 prostate) was 869 nM and the TGI (DU-145 prostate) was 25600 nM. The GI50 (EKVX NSCLC) was 282 nM, the TGI (EKVX NSCLC) was 3640 nM and the GI50 (HCC-2998 colon) was 1050 nM. It also gave a TGI (HCC-2998 colon) of 7730 nM, a GI50 (HCT-116 colon) of 1380 nM and a TGI (HCT-116 colon) of 19200 nM. It also gave a GI50 (HCT-15 colon) of 1230 nM, a TGI (HCT-15 colon) of 28900 nM and a GI50 (HL-60(TB) leukemia) of 1150 nM. It also gave a TGI (HL-60(TB) leukemia) of 12400 nM, a GI50 (HOP-62 NSCLC) of 578 nM and a TGI (HOP-62 NSCLC) of 14200 nM. For the same compound, the GI50 (HT29 colon) was 674 nM, the TGI (HT29 colon) was 17700 nM and the GI50 (IGROV1 ovarian) was 137 nM. The TGI (IGROV1 ovarian) was 515 nM, the GI50 (K-562 leukemia) was 3270 nM and the TGI (K-562 leukemia) was > 100000 nM. For the same compound, the GI50 (KM12 colon) was 2640 nM, the TGI (KM12 colon) was 24000 nM and the GI50 (LOX IMVI melanoma) was 414 nM. The TGI (LOX IMVI melanoma) was 3150 nM, the GI50 (M14 melanoma) was 754 nM and the TGI (M14 melanoma) was 9420 nM. The GI50 (MALME-3M melanoma) was 115 nM, the TGI (MALME-3M melanoma) was 930 nM and the GI50 (MCF7 breast) was 335 nM. The TGI (MCF7 breast) was 22900 nM, the GI50 (MDA-MB-231 breast) was 1090 nM and the TGI (MDA-MB-231 breast) was 4820 nM. For the same compound, the GI50 (MDA-MB-435) was 712 nM, the TGI (MDA-MB-435) was 10300 nM and the GI50 (NCI-H226 lung) was 584 nM. The TGI (NCI-H226 lung) was 26400 nM, the GI50 (NCI-H23 lung) was 1020 nM and the TGI (NCI-H23 lung) was > 100000 nM. The GI50 (NCI-H460 lung) was 1560 nM, the TGI (NCI-H460 lung) was 19600 nM and the GI50 (NCI/ADR-RES ovarian) was 5630 nM. The TGI (NCI/ADR-RES ovarian) was > 100000 nM, the GI50 (OVCAR-3 ovarian) was 391 nM and the TGI (OVCAR-3 ovarian) was 3910 nM. It also gave a GI50 (OVCAR-4 ovarian) of 1660 nM, a TGI (OVCAR-4 ovarian) of 22500 nM and a GI50 (OVCAR-5 ovarian) of 492 nM. The TGI (OVCAR-5 ovarian) was > 100000 nM, the GI50 (OVCAR-8 ovarian) was 1670 nM and the TGI (OVCAR-8 ovarian) was 31200 nM. It also gave a GI50 (PC-3 prostate) of 360 nM, a TGI (PC-3 prostate) of 15100 nM and a GI50 (RXF 393 renal) of 239 nM. For the same compound, the TGI (RXF 393 renal) was 1350 nM, the GI50 (SF-268 CNS) was 407 nM and the TGI (SF-268 CNS) was 27400 nM. For the same compound, the GI50 (SF-295 CNS) was 624 nM, the TGI (SF-295 CNS) was 4290 nM and the GI50 (SF-539 CNS) was 418 nM. The TGI (SF-539 CNS) was 2690 nM, the GI50 (SK-MEL-28 melanoma) was 297 nM and the TGI (SK-MEL-28 melanoma) was 8620 nM. The GI50 (SK-MEL-5 melanoma) was 313 nM, the TGI (SK-MEL-5 melanoma) was 1580 nM and the GI50 (SK-OV-3 ovarian) was 286 nM. The TGI (SK-OV-3 ovarian) was 1940 nM, the GI50 (SN12C renal) was 391 nM and the TGI (SN12C renal) was > 100000 nM. The GI50 (SNB-19 CNS) was 453 nM, the TGI (SNB-19 CNS) was 4850 nM and the GI50 (SR leukemia) was 799 nM. For the same compound, the TGI (SR leukemia) was 6960 nM, the GI50 (SW-620 colon) was 1300 nM and the TGI (SW-620 colon) was 15800 nM. For the same compound, the GI50 (T-47D breast) was 70 nM, the TGI (T-47D breast) was 975 nM and the GI50 (U251 CNS) was 909 nM. For the same compound, the TGI (U251 CNS) was 10500 nM, the GI50 (UACC-257 melanoma) was 498 nM and the TGI (UACC-257 melanoma) was 8120 nM. It also gave a GI50 (UACC-62 melanoma) of 153 nM, a TGI (UACC-62 melanoma) of 1090 nM and a GI50 (UO-31 renal) of 267 nM. For the same compound, the TGI (UO-31 renal) was 2130 nM.
`COc1ccc2c(c1)c(-c1nc(-c3c[nH]c4ncccc34)cs1)cn2CCCN1CCCCC1` showed a GI50 (786-0 renal) of 1610 nM, a TGI (786-0 renal) of 3060 nM and a GI50 (A498 renal) of 1820 nM. For the same compound, the TGI (A498 renal) was 3420 nM, the GI50 (A549 NSCLC) was 1860 nM and the TGI (A549 NSCLC) was 3530 nM. The GI50 (ACHN renal) was 1620 nM, the TGI (ACHN renal) was 3010 nM and the GI50 (BT-549 breast) was 3280 nM. It also gave a TGI (BT-549 breast) of 12700 nM, a GI50 (COLO 205 colon) of 1800 nM and a TGI (COLO 205 colon) of 3520 nM. It also gave a GI50 (DU-145 prostate) of 1650 nM, a TGI (DU-145 prostate) of 3130 nM and a GI50 (EKVX NSCLC) of 1440 nM. It also gave a TGI (EKVX NSCLC) of 2900 nM, a GI50 (HCC-2998 colon) of 1780 nM and a TGI (HCC-2998 colon) of 3420 nM. The GI50 (HCT-15 colon) was 1570 nM, the TGI (HCT-15 colon) was 2970 nM and the GI50 (HL-60(TB) leukemia) was 1860 nM. It also gave a TGI (HL-60(TB) leukemia) of 3790 nM, a GI50 (HOP-62 NSCLC) of 1610 nM and a TGI (HOP-62 NSCLC) of 3200 nM. For the same compound, the GI50 (HOP-92 NSCLC) was 1500 nM, the TGI (HOP-92 NSCLC) was 3100 nM and the GI50 (HS 578T breast) was 2050 nM. It also gave a TGI (HS 578T breast) of 5610 nM, a GI50 (HT29 colon) of 1810 nM and a TGI (HT29 colon) of 3530 nM. The GI50 (K-562 leukemia) was 1880 nM, the TGI (K-562 leukemia) was 4160 nM and the GI50 (KM12 colon) was 1870 nM. The TGI (KM12 colon) was 3860 nM, the GI50 (LOX IMVI melanoma) was 1670 nM and the TGI (LOX IMVI melanoma) was 3180 nM. It also gave a GI50 (M14 melanoma) of 1790 nM, a TGI (M14 melanoma) of 3510 nM and a GI50 (MCF7 breast) of 1430 nM. For the same compound, the TGI (MCF7 breast) was 2900 nM, the GI50 (MDA-MB-231 breast) was 1660 nM and the TGI (MDA-MB-231 breast) was 3270 nM. It also gave a GI50 (MDA-MB-435) of 1700 nM, a TGI (MDA-MB-435) of 3210 nM and a GI50 (NCI-H23 lung) of 1770 nM. It also gave a TGI (NCI-H23 lung) of 3520 nM, a GI50 (NCI-H460 lung) of 1940 nM and a TGI (NCI-H460 lung) of 3880 nM. For the same compound, the GI50 (NCI/ADR-RES ovarian) was 1720 nM, the TGI (NCI/ADR-RES ovarian) was 3440 nM and the GI50 (OVCAR-3 ovarian) was 1630 nM. It also gave a TGI (OVCAR-3 ovarian) of 3100 nM, a GI50 (OVCAR-4 ovarian) of 1830 nM and a TGI (OVCAR-4 ovarian) of 4350 nM. The GI50 (OVCAR-5 ovarian) was 1730 nM, the TGI (OVCAR-5 ovarian) was 3800 nM and the GI50 (OVCAR-8 ovarian) was 2000 nM. For the same compound, the TGI (OVCAR-8 ovarian) was 3760 nM, the GI50 (PC-3 prostate) was 1700 nM and the TGI (PC-3 prostate) was 3290 nM. It also gave a GI50 (RPMI-8226 leukemia) of 2190 nM, a TGI (RPMI-8226 leukemia) of 4800 nM and a GI50 (RXF 393 renal) of 1590 nM. The TGI (RXF 393 renal) was 3200 nM, the GI50 (SF-268 CNS) was 1520 nM and the TGI (SF-268 CNS) was 3170 nM. The GI50 (SF-539 CNS) was 1630 nM, the TGI (SF-539 CNS) was 3070 nM and the GI50 (SK-MEL-2 melanoma) was 1850 nM. It also gave a TGI (SK-MEL-2 melanoma) of 3720 nM, a GI50 (SK-MEL-28 melanoma) of 1720 nM and a TGI (SK-MEL-28 melanoma) of 3260 nM. It also gave a GI50 (SK-OV-3 ovarian) of 1730 nM, a TGI (SK-OV-3 ovarian) of 3270 nM and a GI50 (SN12C renal) of 1750 nM. For the same compound, the TGI (SN12C renal) was 3360 nM, the GI50 (SNB-75 CNS) was 1190 nM and the TGI (SNB-75 CNS) was 3090 nM. For the same compound, the GI50 (SW-620 colon) was 2000 nM, the TGI (SW-620 colon) was 3950 nM and the GI50 (TK-10 renal) was 1590 nM. It also gave a TGI (TK-10 renal) of 3030 nM, a GI50 (U251 CNS) of 1780 nM and a TGI (U251 CNS) of 3210 nM. For the same compound, the GI50 (UACC-257 melanoma) was 1960 nM, the TGI (UACC-257 melanoma) was 3690 nM and the GI50 (UACC-62 melanoma) was 1870 nM. For the same compound, the TGI (UACC-62 melanoma) was 3530 nM, the GI50 (UO-31 renal) was 1380 nM and the TGI (UO-31 renal) was 2830 nM.
